# In patent US20260199481A1, “PROTEIN DEGRADATION TARGETING CHIMERA COMPOUND, COMPOSITION THEREOF, AND USE THEREOF” (TSINGHUA UNIVERSITY, priority 2022, published 2026):
# Read-outs that look alike come from different tables or passages of the source.
# Columns and labels:
# [1] = system: MCF-7 cells; assay: In vitro anti-tumor effect, CellTiter 96 viability assay; format: cell-based; conditions: Homo sapiens, MCF7, light or radiation study
# Method: Experimental Procedure: MCF-7 cells in the logarithmic growth phase were used for the experiment. The cells were seeded at 5000 cells per well in 96-well plates and incubated for 24 hours at 37° C. The cells were treated with Example compounds A1-D3 for 3 h. Subsequently, the irradiated group was irradiated with 10-30 Gy of X-rays, and the cells were continued to be incubated until 72 h after completion of irradiation. At the end of drug treatment, 20 μL of CellTiter 96° solution was added to each well. The well plates were incubated in an incubator for 2-4 hours, and then the absorbance was measured using a plate reader. Data were analyzed with GraphPad Prism software to obtain the IC50 values of each test compound.
# [2] = biological target: T1, BRD4 (Homo sapiens, UniProt O60885); assay: Protein degradation activity, Western blotting of BRD4 in MCF-7 cells; format: cell-based; conditions: FIG. 3
# T1 construct: endogenous in cells; host or cells: MCF-7
# Method: Cell treatment: MCF-7 cells in the logarithmic growth phase were taken for the experiment. Cells were inoculated in six-well plates at a density of 5.0×10^5 cells/per well and incubated at 37° C. for 24 hours. […]
# Whole cell protein extraction: After completion of drug treatment, the culture medium was discarded, and the cells were washed 3 times with pre-cooled PBS. Cells were scraped off using a cell scraper, and the resulting solution was carefully aspirated and centrifuged at 300 g for 5 min at 4° C. to obtain cells, which were washed with PBS, resuspended, and centrifuged under the same conditions.
# Cell lysis: Cells were washed with pre-cooled PBS and lysed in pre-cooled lysis buffer (containing 1% protease and phosphatase inhibitor) for 30 min, and cells were vigorously vortexed several times during lysis. After lysis was completed, the cells were centrifuged at 11,000 g for 15 min at 4° C., and the supernatant was collected as whole cell protein.
# Protein denaturation: protein concentration was measured by Bradford assay. Proteins were diluted using 4× Protein Sampling Buffer. Subsequently, the proteins were denatured by heating in a metal bath at 100° C. for 15 min.
# Protein Immunoblotting Assay (Western Blotting, WB) was Performed to Quantify BRD4 Protein:
# 1) Protein electrophoresis: proteins were separated in 4-12% or 4-20% Bis-Tris SDS-PAGE gels. The appropriate volume of the above cell whole protein extract was added to the lanes of the above SDS-PAGE gel. Turn on the power and electrophoresis at 120 V for 15 minutes, then adjust the voltage to 180 V and continue electrophoresis until the loading buffer reaches the lowest end of the gel.
# (2) Membrane transfer: After electrophoresis, remove the gel, cut a PVDF membrane […] of the appropriate size and activate the membrane with anhydrous methanol, and install the membrane transfer device in the following order from the negative pole to the positive pole: sponge cushion, gel, PVDF membrane, sponge cushion. After installing the membrane transfer device, place it in the corresponding membrane transfer tank, check the liquid level of the solution required for membrane transfer, turn on the power, and complete the membrane transfer after 3 transfer cycles.
# 3) Blocking: Place the membrane in QuickBlock™ Western Blocking Buffer and shake it for 20 minutes at room temperature.
# 4) Primary antibody incubation: After the blocking, discard the blocking solution, add the primary antibody diluted to the appropriate concentration, and gently shake the membrane overnight at 4° C. After completing the incubation, wash the membrane 4 times with 1×TBST for 5 min/time.
# (5) Secondary antibody incubation: Add secondary antibody diluted to the appropriate concentration and gently shake the PVDF membrane for 1 hour at room temperature. After incubation, the membrane was washed 4 times with 1×TBST for 5 min/time.
# 6) Developing: Prepare the ECL developing solution before developing. Lay the PVDF membrane flat on a clean plastic wrap, add the developer solution to the membrane, and let it stand for 1 minute away from light. Subsequently, the PVDF membrane was imaged on a gel system.
# [3] = system: MCF-7 cell line; assay: In vivo anti-tumor activity, MCF-7 tumor model; set-up: species or system BALB/c nude mice; conditions: for tumor growth (tumor volume): 10 mg/kg subcutaneous injection
# Method: To investigate the in vivo activation and antitumor activity of the PROTAC compound AS2 and X-ray-responsive PROTAC compound A1, we performed in vivo antitumor activity studies. The MCF-7 cell line was selected, and experiments were performed in BALB/c nude mice. Experimental animals: BALB/c nude mice (female; 6-8 weeks old) were all purchased from Beijing Vital River Laboratory Animal Technology Co., Ltd and housed in pathogen-free conditions with standard temperature and humidity at the Laboratory Animal Resources Center of Tsinghua University. All animal experiments were approved by the Animal Ethics Committee of Tsinghua University. Tumor model establishment: MCF-7 cells in logarithmic growth phase were taken, and 0.25% trypsin was added to digest the cells after washing the cells for 3 times with pre-cooled PBS buffer. The digested cells were centrifuged at 1000 rpm/min for 5 min, the precipitate was discarded, and the cells were resuspended with pre-cooled PBS and carefully blown to make a single-cell solution. After the cells were counted by a counter, the cell density was adjusted to 1×10^7 cells/mL, and 10 mL was taken into a centrifuge tube and stored on ice. Before inoculation of cancer cells, nude mice were gently wiped under the skin of the right axilla with a paper towel sprayed with 75% alcohol. A 1 mL disposable syringe was used to aspirate 200 μL of cell suspension, and the air in the needle was removed, and a single subcutaneous injection was carried out by puncturing about 1 cm forward from the needle inlet site. The needle was withdrawn slowly to avoid fluid leakage. Observe the tumor growth status daily. Drug administration: When the tumor volume reached 120 mm^3, the tumor-bearing mice were randomly grouped. Six groups were set up, namely PBS, PROTAC drug AS2, PROTAC prodrug A1, PBS+X-ray irradiation, PROTAC drug AS2+X-ray irradiation, and PROTAC prodrug A1+X-ray irradiation. Each drug was dispersed in the following solution: 1.25% DMSO+20% PEG+5% Tween 80+73.75% dd H2O; administered dose: 10 mg/kg; subcutaneous injection. X-ray irradiation was performed 3 hours after drug injection. The irradiation dose was 5 Gy. Tumor size and body weight were monitored every other day. Tumor volume was calculated using the formula: tumor volume=length×width^2/2. After 16 days of monitoring, mice in each group were euthanized, and tumors and major organs were collected.
# [4] = compound 3 h, then X-rays 10 Gy or 30 Gy, 72 h after irradiation, read-out: Irradiation with 10 Gy or 30 Gy IC50
# [5] = no irradiation, 72 h incubation, read-out: Radiation-free IC50
Structure (SMILES),"IC50 [1, 4] [µM]","IC50 [1, 5] [µM]",further results
COc1cc(COC(=O)O[C@@H]2C[C@@H](C(=O)N[C@@H](C)c3ccc(-c4scnc4C)cc3)N(C(=O)[C@H](NC(=O)COCCCOCCNC(=O)C[C@@H]3N=C(c4ccc(Cl)cc4)c4c(sc(C)c4C)-n4c(C)nnc43)C(C)(C)C)C2)cc(OC)c1 [Compound B2],0.119,1.06,–
Cc1ncsc1-c1ccc([C@H](C)NC(=O)[C@@H]2C[C@@H](O)CN2C(=O)[C@H](NC(=O)COCCOCCOCCNC(=O)C[C@@H]2N=C(c3ccc(Cl)cc3)c3c(sc(C)c3C)-n3c(C)nnc32)C(C)(C)C)cc1 [AS2],–,–,"DC50 ([2]; WB): 0.0312 µM; degradation activity on BRD4 ([2]; tested concentrations 0-300 nM): effectively degraded BRD4; tumor growth (tumor volume) ([3]; X-ray 5 Gy 3 hours after drug injection): tumor growth was significantly inhibited; tumor growth (tumor volume) ([3]; no irradiation, compared with PBS group): poor antitumor effect; tumor weight at day 16 ([3]; 10 mg/kg subcutaneous, two administrations with radiation therapy, FIG. 9): essentially no tumor growth"
Cc1ncsc1-c1ccc([C@H](C)NC(=O)[C@@H]2C[C@@H](OC(=O)OCc3c(F)c(F)c(N=[N+]=[N-])c(F)c3F)CN2C(=O)[C@H](NC(=O)COCCCOCCNC(=O)C[C@@H]2N=C(c3ccc(Cl)cc3)c3c(sc(C)c3C)-n3c(C)nnc32)C(C)(C)C)cc1 [Compound B1],0.119,1.08,–
COc1cc(CC(CCCCNc2cccc3c2C(=O)N(C2CCC(=O)NC2=O)C3=O)C(=O)C[C@@H]2N=C(c3ccc(Cl)cc3)c3c(sc(C)c3C)-n3c(C)nnc32)cc(OC)c1 (stereo partly drawn) [Compound B3],0.338,2.76,–
Cc1sc2c(c1C)C(c1ccc(Cl)cc1)=N[C@@H](CC(=O)C(CCCCNc1cccc3c1C(=O)N(C1CCC(=O)NC1=O)C3=O)Cc1c(F)c(F)c(F)c(F)c1F)c1nnc(C)n1-2 (stereo partly drawn) [Compound A3],0.273,2.54,–
COc1cc(COC(=O)O[C@@H]2C[C@@H](C(=O)N[C@@H](C)c3ccc(-c4scnc4C)cc3)N(C(=O)[C@H](NC(=O)COCCOCCOCCNC(=O)C[C@@H]3N=C(c4ccc(Cl)cc4)c4c(sc(C)c4C)-n4c(C)nnc43)C(C)(C)C)C2)cc(OC)c1 [Compound A2],0.103,1.11,–

# More lines, main results first:
"IC50 [1, 4] [µM]","IC50 [1, 5] [µM]",Structure (SMILES),further results
0.104,1.96,COc1cc(COC(=O)N2C(=O)CCC(N3C(=O)c4cccc(NCCCCNC(=O)C[C@@H]5N=C(c6ccc(Cl)cc6)c6c(sc(C)c6C)-n6c(C)nnc65)c4C3=O)C2=O)cc(OC)c1 (stereo partly drawn) [Compound D3],–
0.152,1.22,Cc1ncsc1-c1ccc([C@H](C)NC(=O)[C@@H]2C[C@@H](OC(=O)OCc3c(F)c(F)c(N=[N+]=[N-])c(F)c3F)CN2C(=O)[C@H](NC(=O)CCOCc2cn(CCOCCNC(=O)C[C@@H]3N=C(c4ccc(Cl)cc4)c4c(sc(C)c4C)-n4c(C)nnc43)nn2)C(C)(C)C)cc1 [Compound D1],–
0.107,0.984,COc1cc(COC(=O)O[C@@H]2C[C@@H](C(=O)N[C@@H](C)c3ccc(-c4scnc4C)cc3)N(C(=O)[C@H](NC(=O)CCCCCCCCCCNC(=O)C[C@@H]3N=C(c4ccc(Cl)cc4)c4c(sc(C)c4C)-n4c(C)nnc43)C(C)(C)C)C2)cc(OC)c1 [Compound C2],–
0.127,1.01,COc1cc(COC(=O)O[C@@H]2C[C@@H](C(=O)N[C@@H](C)c3ccc(-c4scnc4C)cc3)N(C(=O)[C@H](NC(=O)CCOCc3cn(CCOCCNC(=O)C[C@@H]4N=C(c5ccc(Cl)cc5)c5c(sc(C)c5C)-n5c(C)nnc54)nn3)C(C)(C)C)C2)cc(OC)c1 [Compound D2],–
0.146,0.964,Cc1ncsc1-c1ccc([C@H](C)NC(=O)[C@@H]2C[C@@H](OC(=O)OCc3c(F)c(F)c(N=[N+]=[N-])c(F)c3F)CN2C(=O)[C@H](NC(=O)CCCCCCCCCCNC(=O)C[C@@H]2N=C(c3ccc(Cl)cc3)c3c(sc(C)c3C)-n3c(C)nnc32)C(C)(C)C)cc1 [Compound C1],–
0.97,1.86,Cc1sc2c(c1C)C(c1ccc(Cl)cc1)=N[C@@H](CC(=O)NCCCCNc1cccc3c1C(=O)N(C1CCC(=O)N(C(=O)OCc4c(F)c(F)c(N)c(F)c4F)C1=O)C3=O)c1nnc(C)n1-2 (stereo partly drawn) [Compound C3],–
